Molecules are shown by their SMILES.

Consider 26 molecules from PubChem BioAssay AID1626 (SRMLSC, 2009).

The assay relates to M. tuberculosis H37Rv growth inhibition. As to the kind of experiment: M. tuberculosis H37Rv growth inhibitors, H37Rv strain (AID 1626). Particulars: for IC90: measured here: IC90 against H37Rv; for CC50: measured here: Vero cell cytotoxicity.

A word on the IC50: it is the concentration that inhibits the measured activity by half. By IC90 is commonly meant the point of the concentration-response curve where the effect stands at 90%. Broadly, the CC50 is the concentration that lowers cell viability or growth by half. Higher therefore signals better tolerance by the cells. Consider `COC(=O)CCn1c(C)cc(C(=O)COc2ccccc2C(N)=O)c1C`, for which the IC50 was 1.57 µM, the IC90 turned out to be 31.1 µM and the CC50 was > 40 µM.
`Cc1ccc(C(=O)Nc2nnc(-c3ccco3)o2)cc1C`: the IC50 was < 0.195 µM, the IC90 is > 100 µM and the CC50 was > 40 µM.
For `CC(C)c1ccc(NC(=O)NC2CCCCC2)cc1`, the concentration for half-maximal inhibition (IC50) is 6.27 µM and the IC90 is > 100 µM.
`O=[N+]([O-])c1cc(CN2CCN(c3cccc(C(F)(F)F)c3)CC2)c2cccnc2c1O`: the IC50 was 13.2 µM, the IC90 is > 100 µM and the CC50 was found to be 1.49 µM.
In the case of `Cc1ccc(Nc2cc(C)nn2-c2nc(C)cc(=O)[nH]2)cc1`, the IC50 is < 0.391 µM, the IC90 worked out at 5.56 µM and the CC50 is 1.95 µM.
On the same counts, the results for `COc1ccc(Br)cc1C(=O)Nc1ccccc1N1CCN(C(=O)c2ccccc2)CC1` are 16.7 µM, > 100 µM and > 40 µM.
`O=C(Nc1ccc(Cl)cc1)c1cc2c(cc1O)[nH]c1ccccc12`: the IC50 is 1.71 µM, the concentration for an effect of 90% (IC90) is 2.29 µM and the CC50 is 13.4 µM.
For `CCOC(=O)CSc1ncnc2c1cnn2-c1ccc(C)cc1C`, the IC50 was 1.44 µM and the IC90 was 2.48 µM.
In the case of `CCCc1cc(NCCCn2ccnc2)n2nc(C)c(-c3ccccc3)c2n1`, the IC50 was 6.28 µM, the IC90 was 9.38 µM and the CC50 is > 40 µM.
As for `O=C(Nc1nnc(-c2ccc(Cl)cc2)o1)C1=COCCO1`, the IC50 was 6.4 µM, the IC90 amounted to 11.4 µM and the CC50 was > 40 µM.
With `Cc1ccccc1-c1cc(C(=O)Nc2nc3c(s2)CCCC3)c2ccccc2n1`, the IC50 is 4.41 µM, the IC90 was 12.7 µM and the CC50 was > 40 µM.
On the same counts, the results for `CCc1nc(N2CCCC(C)C2)c2oc3ccccc3c2n1` (centres undefined) are 17 µM, 23.8 µM and > 40 µM.
In the same order, the values of `CC(C)(C)c1nn(-c2ccccc2)c2[nH]c(=O)c(CNCc3ccc4c(c3)OCO4)cc12` are 11.3 µM, 13.8 µM and > 40 µM.
As for `COc1ccc(N2Cc3ccccc3C2)cc1Cl`, the concentration for an effect of 90% (IC90) was > 100 µM.
For `O=C(C[n+]1cc(-c2ccccc2)n2c1CCC2)Nc1nc(-c2ccc(F)cc2)cs1`, the IC50 is 19.9 µM and the concentration for an effect of 90% (IC90) stood at 42.8 µM.
On to `Cc1ccc(Cc2cnc(NC(=O)C3CCCO3)s2)cc1` (centres undefined), for which the IC90 is > 100 µM and the CC50 was > 40 µM.
In the case of `COc1ccc(-c2c(C#N)c(SCC(=O)c3cc4ccccc4oc3=O)nc(C)c2C(=O)Nc2ccccc2)cc1`, the IC50 is 12.2 µM, the IC90 was 14.2 µM and the CC50 worked out at 3.41 µM.
Turning to `Cc1nc2ccc(NC(=O)C(F)(F)F)cc2o1`, the IC90 was > 100 µM.
In the case of `CC(C)(C)c1ccc(-c2cn(-c3ccc(Br)cc3)c3[n+]2CCCS3)cc1`, the IC50 is 2.62 µM, the IC90 came to 4.97 µM and the CC50 is 13.3 µM.
In the case of `COc1ccc(NC(=O)CCCSc2ccccc2)cc1`, the IC90 is > 100 µM.
The same measure, in the same setting: next, `CCOc1ccc(NC(=O)CSc2ccccc2N)cc1`: > 100 µM.
For the molecule `Cc1ccc2nc(/N=C(\N)NC(=O)NC3CCCCC3)nc(C)c2c1`, the IC50 was 5.92 µM, the IC90 was determined as 6.73 µM and the CC50 stood at 25.3 µM.
Regarding `CCOC(=O)c1cc(-c2csc(COc3ccccc3Cl)n2)on1`, the IC50 is < 0.195 µM and the IC90 was determined as 3.52 µM.
Consider `O=C(OCC#CCSc1nc2ccccc2o1)c1cc2ccccc2o1`, for which the IC50 is 5.72 µM, the IC90 turned out to be 12.7 µM and the CC50 was > 40 µM.
In the case of `COC(=O)CSc1ccc2c(N)c(C(=O)OC)sc2c1`, the IC50 is 1.68 µM and the IC90 stood at 2.82 µM.
Regarding `CN(C)c1ccc(O)c2c1CC1CC3C(N(C)C)C(=O)C(C(N)=O)=C(O)[C@@]3(O)C(=O)C1=C2O` (some centres undefined), the IC50 is 3.33 µM, the concentration for an effect of 90% (IC90) worked out at 7.59 µM and the CC50 is > 40 µM.
